Experimental data taken from PubChem BioAssay AID2060491 (Molecular Pharmacology Branch, DTP, NCI, 2025).

Tested on: 857933-349-R-J2-PDC complex spheroids, viability
Assay: Anticancer human tumor 857933-349-R-J2-PDC patient-derived colon adenocarcinoma cell line growth inhibition [GQUAD]
Conditions: for IC50: curve of first compound; for viability, T/C: stronger effect = lower value
Method in brief: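 Tumor cells were grown as complex spheroids with HUVEC endothelial cells and mesenchymal stem cells as stroma. G-quadruplex stabilizers were combined with targeted agents over half-log dilutions from near the clinical Cmax, or from 10 microM.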

[1] = second compound 0.0316 µM, first compound 0.0316 µM
[2] = second compound 0.0316 µM, first compound 0.1 µM
[3] = second compound 0.0316 µM, first compound 0.316 µM
[4] = second compound 0.0316 µM, first compound 1 µM
[5] = second compound 0.0316 µM, first compound 3.16 µM
[6] = second compound 0.0316 µM, first compound 10 µM
[7] = second compound 0.1 µM, first compound 0.0316 µM
[8] = second compound 0.1 µM, first compound 0.1 µM
[9] = second compound 0.1 µM, first compound 0.316 µM
[10] = second compound 0.1 µM, first compound 1 µM
[11] = second compound 0.1 µM, first compound 3.16 µM
[12] = second compound 0.1 µM, first compound 10 µM
[13] = second compound 0.316 µM, first compound 0.0316 µM
[14] = second compound 0.316 µM, first compound 0.1 µM
[15] = second compound 0.316 µM, first compound 0.316 µM
[16] = second compound 0.316 µM, first compound 1 µM
[17] = second compound 0.316 µM, first compound 3.16 µM
[18] = second compound 0.316 µM, first compound 10 µM
[19] = second compound 1 µM, first compound 0.0316 µM
[20] = second compound 1 µM, first compound 0.1 µM
[21] = second compound 1 µM, first compound 0.316 µM
[22] = second compound 1 µM, first compound 1 µM
[23] = second compound 1 µM, first compound 3.16 µM
[24] = second compound 1 µM, first compound 10 µM
[25] = second compound 3.16 µM, first compound 0.0316 µM
[26] = second compound 3.16 µM, first compound 0.1 µM
[27] = second compound 3.16 µM, first compound 0.316 µM
[28] = second compound 3.16 µM, first compound 1 µM
[29] = second compound 3.16 µM, first compound 3.16 µM
[30] = second compound 3.16 µM, first compound 10 µM
[31] = second compound 10 µM, first compound 0.0316 µM
[32] = second compound 10 µM, first compound 0.1 µM
[33] = second compound 10 µM, first compound 0.316 µM
[34] = second compound 10 µM, first compound 1 µM
[35] = second compound 10 µM, first compound 3.16 µM
[36] = second compound 10 µM, first compound 10 µM
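Also: spheroids exposed to compounds for one week before readout.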
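For viability, T/C in this document: percent viability relative to vehicle DMSO wells taken as 100%.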

`C=CCn1c(=O)c2cnc(Nc3ccc(N4CCN(C)CC4)cc3)nc2n1-c1cccc(C(C)(C)O)n1` + CN(C)c1ccc(Nc2c3ccc(NC(=O)CCN4CCCC4)cc3nc3cc(NC(=O)CCN4CCCC4)ccc23)cc1 was tested, and the IC50 (second compound 0.0316 µM) was 1840 nM, the IC50 (second compound 0.1 µM) was 1650 nM and the IC50 (second compound 0.316 µM) was 1510 nM. It also gave an IC50 (second compound 1 µM) of 1570 nM, an IC50 (second compound 3.16 µM) of 1190 nM and an IC50 (second compound 10 µM) of 756 nM. The viability, T/C [1] was 102%, the viability, T/C [2] was 102% and the viability, T/C [3] was 96.6%. The viability, T/C [4] was 75.7%, the viability, T/C [5] was 26.1% and the viability, T/C [6] was 27.9%. For the same compound, the viability, T/C [7] was 101%, the viability, T/C [8] was 99.4% and the viability, T/C [9] was 99.2%. The viability, T/C [10] was 68.6%, the viability, T/C [11] was 24.3% and the viability, T/C [12] was 27.3%. For the same compound, the viability, T/C [13] was 97.7%, the viability, T/C [14] was 95.3% and the viability, T/C [15] was 101%. The viability, T/C [16] was 63.1%, the viability, T/C [17] was 28.4% and the viability, T/C [18] was 24.9%. For the same compound, the viability, T/C [19] was 94.3%, the viability, T/C [20] was 81.6% and the viability, T/C [21] was 87.8%. The viability, T/C [22] was 60.8%, the viability, T/C [23] was 32.5% and the viability, T/C [24] was 33.8%. It also gave a viability, T/C [25] of 88%, a viability, T/C [26] of 73.5% and a viability, T/C [27] of 75.5%. It also gave a viability, T/C [28] of 53.5%, a viability, T/C [29] of 31.8% and a viability, T/C [30] of 28.6%. It also gave a viability, T/C [31] of 62.1%, a viability, T/C [32] of 62.6% and a viability, T/C [33] of 57.6%. The viability, T/C [34] was 47.7%, the viability, T/C [35] was 32.2% and the viability, T/C [36] was 25.2%.

`CC(C)(O)C1CCC(Nc2ccc3ncc(-c4cccc(C(F)(F)F)c4)n3n2)CC1` (stereo not drawn) + CN(C)c1ccc(Nc2c3ccc(NC(=O)CCN4CCCC4)cc3nc3cc(NC(=O)CCN4CCCC4)ccc23)cc1 showed an IC50 (second compound 0.0316 µM) of 801 nM, an IC50 (second compound 0.1 µM) of 732 nM and an IC50 (second compound 0.316 µM) of 691 nM. The IC50 (second compound 1 µM) was 684 nM, the IC50 (second compound 3.16 µM) was 596 nM and the IC50 (second compound 10 µM) was 456 nM. The viability, T/C [1] was 117%, the viability, T/C [2] was 98.4% and the viability, T/C [3] was 97.5%. The viability, T/C [4] was 39.1%, the viability, T/C [5] was 2.79% and the viability, T/C [6] was 2.75%. The viability, T/C [7] was 102%, the viability, T/C [8] was 94% and the viability, T/C [9] was 89.3%. The viability, T/C [10] was 35.6%, the viability, T/C [11] was 2.84% and the viability, T/C [12] was 2.87%. It also gave a viability, T/C [13] of 99%, a viability, T/C [14] of 94.3% and a viability, T/C [15] of 87.2%. The viability, T/C [16] was 32.6%, the viability, T/C [17] was 3.05% and the viability, T/C [18] was 3.1%. The viability, T/C [19] was 94%, the viability, T/C [20] was 83.2% and the viability, T/C [21] was 83.3%. For the same compound, the viability, T/C [22] was 33.8%, the viability, T/C [23] was 3.77% and the viability, T/C [24] was 3.15%. It also gave a viability, T/C [25] of 78.9%, a viability, T/C [26] of 75.5% and a viability, T/C [27] of 74.2%. It also gave a viability, T/C [28] of 30.4%, a viability, T/C [29] of 7.32% and a viability, T/C [30] of 5.21%. It also gave a viability, T/C [31] of 62.9%, a viability, T/C [32] of 66.4% and a viability, T/C [33] of 59.4%. It also gave a viability, T/C [34] of 30.1%, a viability, T/C [35] of 15.3% and a viability, T/C [36] of 9.67%.

`COc1ncnc(C2CC2)c1-c1ncc2cnn(Cc3ccc(-c4nc(C(F)(F)F)cn4C(C)C)cc3)c2n1` + CN(C)c1ccc(Nc2c3ccc(NC(=O)CCN4CCCC4)cc3nc3cc(NC(=O)CCN4CCCC4)ccc23)cc1 was tested, and the IC50 (second compound 0.0316 µM) was over 10000 nM, the IC50 (second compound 0.1 µM) was over 10000 nM and the IC50 (second compound 0.316 µM) was over 10000 nM. The IC50 (second compound 1 µM) was over 10000 nM, the IC50 (second compound 3.16 µM) was over 10000 nM and the IC50 (second compound 10 µM) was over 10000 nM. For the same compound, the viability, T/C [1] was 106%, the viability, T/C [2] was 99.8% and the viability, T/C [3] was 102%. It also gave a viability, T/C [4] of 101%, a viability, T/C [5] of 104% and a viability, T/C [6] of 104%. It also gave a viability, T/C [7] of 99.9%, a viability, T/C [8] of 103% and a viability, T/C [9] of 102%. It also gave a viability, T/C [10] of 101%, a viability, T/C [11] of 105% and a viability, T/C [12] of 109%. For the same compound, the viability, T/C [13] was 104%, the viability, T/C [14] was 104% and the viability, T/C [15] was 97.3%. It also gave a viability, T/C [16] of 90.8%, a viability, T/C [17] of 104% and a viability, T/C [18] of 99.2%. The viability, T/C [19] was 97.7%, the viability, T/C [20] was 88.5% and the viability, T/C [21] was 94.6%. The viability, T/C [22] was 92.7%, the viability, T/C [23] was 90.7% and the viability, T/C [24] was 87.6%. For the same compound, the viability, T/C [25] was 83.9%, the viability, T/C [26] was 77.7% and the viability, T/C [27] was 82.5%. For the same compound, the viability, T/C [28] was 74.2%, the viability, T/C [29] was 79.6% and the viability, T/C [30] was 67.3%. For the same compound, the viability, T/C [31] was 64.6%, the viability, T/C [32] was 63.1% and the viability, T/C [33] was 66.2%. It also gave a viability, T/C [34] of 61.6%, a viability, T/C [35] of 56.5% and a viability, T/C [36] of 52.2%.

`O=C(NO)c1cnc(N2CCN(S(=O)(=O)c3ccc4ccccc4c3)CC2)nc1` + CN(C)c1ccc(Nc2c3ccc(NC(=O)CCN4CCCC4)cc3nc3cc(NC(=O)CCN4CCCC4)ccc23)cc1 gave an IC50 (second compound 0.0316 µM) of 1480 nM, an IC50 (second compound 0.1 µM) of 1510 nM and an IC50 (second compound 0.316 µM) of 1310 nM. It also gave an IC50 (second compound 1 µM) of 1230 nM, an IC50 (second compound 3.16 µM) of 1130 nM and an IC50 (second compound 10 µM) of 658 nM. It also gave a viability, T/C [1] of 106%, a viability, T/C [2] of 100% and a viability, T/C [3] of 101%. It also gave a viability, T/C [4] of 75.1%, a viability, T/C [5] of 0.74% and a viability, T/C [6] of 0.27%. The viability, T/C [7] was 101%, the viability, T/C [8] was 99.3% and the viability, T/C [9] was 93.8%. It also gave a viability, T/C [10] of 77.1%, a viability, T/C [11] of 0.65% and a viability, T/C [12] of 0.57%. It also gave a viability, T/C [13] of 101%, a viability, T/C [14] of 100% and a viability, T/C [15] of 93%. For the same compound, the viability, T/C [16] was 64.9%, the viability, T/C [17] was 1.11% and the viability, T/C [18] was 0.38%. For the same compound, the viability, T/C [19] was 97.2%, the viability, T/C [20] was 97% and the viability, T/C [21] was 92.9%. The viability, T/C [22] was 60.7%, the viability, T/C [23] was 0.83% and the viability, T/C [24] was 0.36%. For the same compound, the viability, T/C [25] was 89%, the viability, T/C [26] was 80.1% and the viability, T/C [27] was 92.4%. For the same compound, the viability, T/C [28] was 55.7%, the viability, T/C [29] was 1% and the viability, T/C [30] was 0.3%. The viability, T/C [31] was 66.2%, the viability, T/C [32] was 68.2% and the viability, T/C [33] was 68.5%. The viability, T/C [34] was 40%, the viability, T/C [35] was 0.55% and the viability, T/C [36] was 0.71%.
